In patent US10822448B2, “Dynamic urea bonds with fast hydrolytic kinetics for polymers” (THE BOARD OF TRUSTEES OF THE UNIVERSITY OF ILLINOIS, priority 2016, dated 2020):
Like-named read-outs stand apart in the source and are kept apart here.

Assays:
[1] = Equilibrium (binding) constant Keq of aryl hindered ureas by 1H NMR amine exchange in d-chloroform; format: physicochemical; conditions: room temperature
Protocol: (§1) We designed a set of aryl ureas with distinguished electronic effect on the conjugated phenyl ring (Table 1) and the corresponding Keq were studied by ^1H NMR through exchanging of the urea with a set of bulky amines in d-chloroform. The equilibrium constant of the aryl urea bond increases as the bulkiness of the substitution on the amine decreases. […] The dissociation constant k−1 was measured by exchange study of the ureas with another amine and calculated through linear regression. Remarkably, the amine exchange of the tBEU could reach equilibrium within 20 minutes at room temperature in d-chloroform. The k−1 of tBEU with aryl substitution is two orders of magnitudes larger than the reported aliphatic urea (Table 1) and among the fastest dynamic chemistries reported so far. […] The substituent on the aryl group can remotely affect the HUB through electronic effects, thus offering an extra tunability on the Keq and k−1 of the bond, which is unprecedented in hindered urea chemistry. The large value of Keq also makes it possible to prepare large molecular weight aromatic hindered urea materials with quantitative conversion.
We designed a set of aryl ureas with distinguished electronic effect on the conjugated phenyl ring (Table 1) and the corresponding Keq were studied by ^1H NMR through exchanging of the urea with a set of bulky amines in d-chloroform. The equilibrium constant of the aryl urea bond increases as the bulkiness of the substitution on amine increases. […] The dissociation constant k−1 was measured by exchanging of the ureas with another amine and calculated through linear regression. […] In addition, the calculated k1 is larger than 10^5 M^−1·h^−1 indicating the urea formation can be completed within seconds upon mixing. […] The large value of Keq make it possible to prepare chemically stable aromatic hindered urea materials with quantitative conversion.
The binding constant (Keq) was measured through indirect method used previously. […] Briefly, the of Keq of the equilibrium was measured in d-chloroform and the Keq of each aryl urea was calculated accordingly. […]

[2] = Dissociation constant k−1 of hindered ureas by amine exchange experiment (1H NMR, d-chloroform); format: physicochemical; conditions: room temperature
Protocol: as §1
The dissociation constant (k−1) of corresponding hinder ureas were determined through exchange experiment. Briefly, a d-chloroform (550 μL) solution of tBEU (0.050 mmol, ˜12 mg) was mixed with N-methyl-t-butyl-amine (1 eq). Then the mixture was monitored with ^1H NMR. The ratio of the two ureas was quantified by integration of the methyl/methylene hydrogen adjacent to the nitrogen atom. Linear regression of ln
[formula] ˜t giving the slope as the dissociation constant (k−1).
The method for tBEU was used except that 10 equivalent t-butylamine or n-butyl amine was used.
The dynamic behavior of the aromatic urea was then investigated by exchanging the tBEU with methyl-t-butylamine and the relative concentration of all species were monitored by ^1H NMR. […] In contrast, the aliphatic tBEU requires several days to reach equilibrium at 37° C. Through linear regression of the exchange component, the dissociate rate of the ureas were determined to be 5-12 h^−1 at room temperature, which is two order of magnitude higher than the aliphatic counterpart. […] SeeYing, H.; Zhang, Y.; Cheng, J. Nat. Commun. 2014, 5, 3218, which is incorporated by reference herein in its entirety.

[3] = HPLC analysis of Ph-tBEU hydrolysis kinetics in 1:1 DMSO-aqueous buffer at various pH; format: physicochemical
Protocol: FIGS. 1A to 1C depict the hydrolysis of phenyl-N-tetrabutyl-N-ethyl urea (Ph-tBEU) in 1:1 DMSO-aqueous buffer at various pH conditions at 37° C. as analyzed by HPLC. […] The dotted line marks the measured k−1 of the Ph-tBEU under the same condition through exchange with 10 equivalents of t-butyl amine.
The hydrolysis of aryl tBEU under different pH conditions was then studied in 1:1 DMSO-aqueous buffer solution at 23° C. […] Kinetic analysis of the hydrolytic kinetics confirmed that the overall urea degradation rate is determined by the urea dissociation and can be expressed as
HPLC Analysis of pH-tBEU Hydrolysis Kinetics in 50:50 DMSO-H2O at 37° C.
Ph-tBEU stock solution was prepared in DMSO as 2 mg/mL. The solution was diluted with 1:1 DMSO/buffer to 20 μg/mL ([…]) and incubated at 37° C. At specified time, the solution was analyzed by HPLC to quantify the remaining tBEU content by standard calibration curve (λabs=264 nm).
The standard sample of Ph-tBEU was prepared by diluting the stock solution with acetonitrile to a 2-fold serial dilution and analyzed instantly after preparation. The pH 1, 7, 10 buffers were prepared by adding acid/base to 1*PBS solution. pH 4 buffer was prepared by citric acid-Na2HPO4 (0.1 M). The pH of all the buffers were confirmed by pH meter prior to conducting the experiments.

[4] = cited from earlier work
[5] = aliphatic HUB, adapted from Ying et al. Nat. Commun. 2014; cited from earlier work

SMILES	Keq [1]	k1 (calculated as Keq × k−1) [2]	k−1 (dissociation rate) [2]	apparent hydrolysis constant kobs ([3]; 23° C. as printed)	pH dependence of observed hydrolysis constant kobs ([3]; pH ranging from 3-11)	time for exchange to reach equilibrium ([4]; aliphatic tBEU, 37° C.)	k−1 (dissociation rate) ([4]; reported aliphatic urea)	Keq [5]
CCN(C(=O)Nc1ccc(OC)cc1)C(C)(C)C [compound 1]	81000 M⁻¹	250 M⁻¹ s⁻¹	11.2 h⁻¹	–	–	–	–	–
CCN(C(=O)Nc1ccccc1)C(C)(C)C [compound 2, phenyl-N-tetrabutyl-N-ethyl urea]	360000 M⁻¹	889 M⁻¹ s⁻¹	8.9 h⁻¹	0.17 h⁻¹	independent of pH	–	–	–
CCN(C(=O)Nc1ccc([N+](=O)[O-])cc1)C(C)(C)C [compound 3]	6.8e+06 M⁻¹	10800 M⁻¹ s⁻¹	5.7 h⁻¹	–	–	–	–	–
C=C(C)C(=O)OCCNC(=O)N(CC)C(C)(C)C [compound 4]	–	9.17 M⁻¹ s⁻¹	–	–	–	several days	0.042 h⁻¹	790000 M⁻¹
